Test results: patent US20240207308A1, “METHOD FOR CULTURING DENDRITIC CELLS” (NANOFAENTECH CO., LTD., priority 2021, published 2024)

Columns and labels:
Assay type in all cases: cell-based, mouse
spleen dendritic cells [1] = test: Flow cytometry of CD86, MHC-II, CD80, CD40 on cultured spleen dendritic cells (self-activation); details: for increase in the expression of CD86: each at 800 μg/mL, 24 hours; for increase in the expression of CD86 / increase in CD86 expression by self-activation: 2×10^5/mL cells; for increase in CD86 expression by self-activation: different concentrations up to 800 μg/mL
Experimental: Mouse spleen dendritic cells were obtained by adding EDTA-BSS (Balanced Salt Solution) buffer and collagenase solution (DMEM containing 100 units of collagenase type IV, medium containing low glucose) to spleens of female C57BL/6 mice and cutting it with surgical scissors, mixing the same with 6 mL of collagenase treatment solution, and incubating the mixture for 30 minutes. The separated whole spleen tissue was filtered using a 70 μm cell strainer (Falcon), followed by centrifugation at 1800 rpm for 5 minutes thus to separate the cells. Red blood cells were removed by adding red blood cell lysis buffer (Sigma-Aldrich) to the cells and washed twice with RPMI-1640 medium containing 10% fetal bovine serum (FBS). Dendritic cells were reacted with CD11c^+ antibody-bound microbeads and isolated using CD11c Microbeads Ultrapure (MACS, Milteni Biotec, USA).
In FIG. 2, in order to determine whether self-activation occurs when primary dendritic cells isolated from the spleen are cultured, dendritic cells were dispensed in a 24-well plate at 2×10^5/mL, and after culturing for 6 hours in RPMI-1640 medium at 37° C. under 5% CO2 condition, the expression levels of MHC-II, CD86, CD80 and CD40 were analyzed on the surface of dendritic cells using a flow cytometer (MACSQuant VYB flow cytometer, Miltenyi Biotec). Results measured using a flow cytometer were analyzed using FlowJo v10 (Tree Star, Ashland). The expression levels of CD86, CD80 and CD40 were shown as the percentage of cells stained with CD11c, and the expression level of MHC-II was shown as mean fluorescence intensity (MFI), which is the mean fluorescence intensity of fluorescence.
In FIG. 7, when culturing spleen dendritic cells, each of the prepared peptides was added at a concentration of 200 μg/mL and the expression level of CD86 was measured 6 hours after culture. When each peptide was used alone for treatment, the expression of CD86 was not inhibited in spleen dendritic cells. […] Compared to when the cells were treated with these three kinds of peptides, the expression was not inhibited even when the two kinds of peptides were used together for treatment. * indicates statistical significance as P<0.05 or less compared to the P1, P1-2, and P2-1 conditions.
In FIG. 9, peptides containing P1 and P2 and amino acids of these peptides as well as P3 peptide in a combination of three types were added to the spleen dendritic cell culture medium, and after culturing for 6 hours, the expression level of CD86 was measured by flow cytometry.
In FIG. 24, different concentrations of LP1, LP2 and LP3 were added to reach a concentration of 800 μg/mL, and spleen dendritic cells (2×10^5/mL) were cultured for 6 hours or 24 hours, and the CD86 expression level was measured by flow cytometry (MACSQuant VYB flow cytometer, Miltenyi Biotec). The measured results were analyzed using FlowJo v10 (Tree Star, Ashland).
In FIG. 25, when spleen primary dendritic cells were dispensed at 2×10^5/mL and cultured for 24 hours while scrambled peptides of S-LP1, S-LP2 and S-LP3 were each added at a concentration of 800 μg/mL, the increase in the expression of CD86 was not inhibited. Further, the expression of CD86 was not reduced even when the scrambled peptides S-P1, S-P2 and S-P3 were simultaneously treated at a concentration of 600 μg/mL, respectively.

spleen dendritic cells [2] = test: Fluorescence staining of CD86 in spleen dendritic cells, confocal microscope; details: without LPS, linker peptides 400 μg/mL, 24 hours
Experimental: In FIG. 11, culturing spleen dendritic cells (2×10^5/mL) and the prepared peptides were added at a concentration of 200 μg/mL, respectively, and after 6 hours, the expression level of CD86 using a PE-conjugated anti-CD86 antibody (eBioscience) was measured through a confocal microscope after fluorescence staining. After culturing spleen primary dendritic cells for a certain period of time, intracellular CD86, F-actin and nuclear staining was implemented. Expression of actin was stained with FITC-conjugated phalloidin (eBioscience), and nuclear staining was conducted with Hoechst 33342 (Sigma-Aldrich). For this purpose, cells cultured in a 48-well plate were placed in a 4% paraformaldehyde fixing solution, and then fixed at room temperature for 20 minutes.
Then, after washing twice with phosphate buffered saline solution, it was permeabilized with 0.1% Triton X-100 (Sigma-Aldrich) solution at room temperature for 5 minutes and washed twice with phosphate buffered saline solution. In order to remove non-specific staining, after reacting with 0.2% bovine serum albumin (Sigma-Aldrich) solution at room temperature for 20 minutes, it was washed twice with phosphate buffered saline solution. After that, the anti-CD86 antibody and phalloidine were diluted in 0.2% bovine serum albumin solution at a ratio of 1:40 and reacted for 40 minutes, washed 3 times with Tris buffer, placed on a slide glass, followed by counter-staining with Hoechst 33342 solution for nuclear staining of cells. After sealing with a cover glass, the cells were observed using a confocal laser microscope (K1 nanoscope).
In FIG. 26, spleen dendritic cells (2×10^5/mL) were dispensed in a 48-well plate, and linker peptides were each added at a concentration of 400 μg/mL, followed by culturing for 24 hours. Activation of spleen dendritic cells was induced by adding 1 μg/mL of LPS to the culture medium. The cultured cells were placed in a 4% paraformaldehyde fixing solution and fixed at room temperature for 20 minutes. After fluorescence staining using PE-conjugated anti-CD86 antibody (eBioscience), it was measured with a confocal microscope (K1 Nanoscope, Korea). Intracellular actin expression was stained with FITC-conjugated phalloidin (eBioscience), and nuclear staining was conducted with Hoechst 33342 (Sigma-Aldrich). CD86 antibody and phalloidin were diluted 1:40 in 0.2% bovine serum albumin solution and used.

[3] = tested on: spleen primary dendritic cells; test: ELISA of TNF-α / IL-12p40 secreted by cultured spleen primary dendritic cells; details: cells 2×10^5/mL, 24 hours, without LPS
Experimental: In FIG. 12, spleen primary dendritic cells were dispensed at 1×10^6/mL and cultured for 24 hours, and then a concentration of TNF-α secreted from these cells in the culture medium was measured. As a result, it was confirmed that the secretion increased in a time-dependent manner. The concentration of TNF-α was measured at 450 nm using an ELISA kit (R&D systems) and a microplate analyzer (Synergy H1, Biotek). However, when dendritic cells were dispensed at 2×10^5/mL, CD86 expression was increased but TNF-α secretion was not increased (results not presented). * indicates statistical significance as P<0.05 or less compared with 3 h.
In FIG. 13, spleen primary dendritic cells were dispensed at 1×10^6/mL and cultured for 24 hours. […] Furthermore, when P4, P5 and P6 peptides were added at a concentration of 200 μg/mL, respectively, the secretion of TNF-α was not inhibited.
Therefore, it could be seen that fibronectin has a disadvantage of inhibiting the activation by stimulants although can maintain the inactivation of spleen dendritic cells. * indicates statistical significance as P<0.05 or less compared to -LPS.
In FIG. 27, an ELISA kit (R&D systems) was used to measure the concentration of TNF-α secreted into the culture medium when spleen primary dendritic cells were dispensed at 2×10^5/mL and cultured for 24 hours. The concentration was determined at 450 nm by a microplate analyzer (Synergy H1, Biotek).

[4] = tested on: spleen T cells from Balb/c mice; test: Mixed lymphocyte reaction: proliferation of CFSE-stained allogeneic T cells co-cultured with spleen dendritic cells; details: dendritic cells without peptide or fibronectin, activated with the stimulant, compared to control
Experimental: Since the main role of activated dendritic cells is to induce antigen-specific T-cell activation and proliferation according to the stimulatory properties, it was investigated whether self-activated dendrite cells after culturing and dendritic cells activated with LPS after culturing with addition of peptides can induce T cell proliferation by mixed lymphocyte reaction (MLR) test. The spleen dendritic cells isolated from C57B/L6 mice were self-activated for 24 hours, otherwise, when cultured with addition of peptides or fibronectin, the cells were treated with LPS and activated. Spleen T cells from Balb/c mice were isolated using a CD4^+/CD8^+ T cell isolation kit (Miltenyi Biotec, Bergisch-Gladbach, Germany) and MACS column (Miltenyi Biotec), followed by 10 μM CFSE staining (Molecular Probes; Thermo Fisher Scientific Inc., USA). The activated dendritic cells and CFSE-stained T cells were co-cultured at a ratio of 1:20 for 4 days, and the T cell proliferation level was measured as a percentage of cells with decreased CFSE. […] In FIG. 22, the amount of cytokines secreted after co-culture of spleen dendritic cells and T cells for 4 days was measured by ELISA method. […]

Row | Substance | increase in the expression of CD86 (spleen dendritic cells [1]) | increase in CD86 expression by self-activation (spleen dendritic cells [1]; 6 hours or 24 hours) | CD86-expressing cells (spleen dendritic cells [2]) | TNF-α secretion [3] | further results
1 | NRPHSGSDRGGSVDL (Scrambled linker peptide S-LP1) [scrambled linker peptide, control, reference compound] | not inhibited | – | – | – | –
2 | Pro-His-Ser-Arg-Asn (PHSRN; Fibronectin motif P3) [Peptide P3] | – | – | – | – | expression level of CD86 (spleen dendritic cells [1]; treated alone at 600 μg/mL, 6 hours): no inhibitory effect
3 | NRPHSGGGSDRGGGGSVDL (Scrambled linker peptide S-LP2) [scrambled linker peptide, control, reference compound] | not inhibited | – | – | – | –
4 | PHSRNGSRGDGSLDV (Linker peptide LP1) | – | inhibited | almost not observed | hardly occurred | –
5 | PHSRNGGGSGGGSRGDGGGSLDV (Linker peptide LP3) | – | inhibited | almost not observed | hardly occurred | self-activation inhibitory effect compared among LP1, LP2 and LP3 (spleen dendritic cells [1]; up to 800 μg/mL, 6 hours or 24 hours): greatest self-activation inhibitory effect
6 | laminin | – | – | – | – | expression level of CD86 or MHC-II (self-activation) (spleen dendritic cells [1]; 200 μg/mL (laminin 200 μg/mL or higher), cultured 6 hours): self-activation was not inhibited; expression of MHC-II, CD80 and CD40 in addition to CD86 (spleen dendritic cells [1]; cultured 6 hours or 24 hours, peptides 200 μg/mL each): no effect was observed
7 | PHSRNGGGSRGDGGGSLDV (Linker peptide LP2) | – | inhibited | almost not observed | hardly occurred | –
8 | NRPHSGGGSGGGSDRGGGGSVDL (Scrambled linker peptide S-LP3) [scrambled linker peptide, control, reference compound] | not inhibited | – | – | – | –
9 | polyinosinic:polycytidylic acid [poly (I:C), reference compound] | – | – | – | – | proliferation of co-cultured spleen T cells [4]: slightly increased
